{"source": "ChEMBL document CHEMBL1136352", "about": "“Synthesis of 2-fluoronoraristeromycin and its inhibitory activity against Plasmodium falciparum S-adenosyl-L-homocysteine hydrolase” (Bioorg Med Chem Lett, 2003)", "key": {"FM3A": {"tested_on": "FM3A", "assay": "Inhibitory activity against mammalian FM3A cell", "format": "functional, cell-based", "conditions": "Mus musculus"}, "Plasmodium falciparum": {"tested_on": "Plasmodium falciparum", "assay": "Inhibitory activity against Plasmodium falciparum", "format": "functional, organism-based"}, "Adenosylhomocysteinase [1]": {"target": "Adenosylhomocysteinase (Homo sapiens, UniProt P23526)", "sequence (P23526 whole entry)": "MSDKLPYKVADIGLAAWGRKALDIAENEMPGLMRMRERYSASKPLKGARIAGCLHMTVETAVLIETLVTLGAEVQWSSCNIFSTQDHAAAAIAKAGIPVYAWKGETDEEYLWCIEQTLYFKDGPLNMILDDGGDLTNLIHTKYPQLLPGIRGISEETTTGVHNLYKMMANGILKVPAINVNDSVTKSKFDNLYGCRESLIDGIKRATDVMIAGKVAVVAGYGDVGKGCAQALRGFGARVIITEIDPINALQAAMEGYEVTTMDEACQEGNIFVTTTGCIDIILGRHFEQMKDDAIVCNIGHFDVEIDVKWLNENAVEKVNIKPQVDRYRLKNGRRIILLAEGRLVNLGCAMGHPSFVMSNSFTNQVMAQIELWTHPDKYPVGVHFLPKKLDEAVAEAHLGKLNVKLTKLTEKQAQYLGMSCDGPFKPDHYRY", "assay": "Inhibitory activity against human S-adenosyl-L-homocysteine hydrolase"}, "Adenosylhomocysteinase [2]": {"target": "Adenosylhomocysteinase (Plasmodium falciparum 3D7, UniProt P50250)", "sequence (P50250 whole entry)": "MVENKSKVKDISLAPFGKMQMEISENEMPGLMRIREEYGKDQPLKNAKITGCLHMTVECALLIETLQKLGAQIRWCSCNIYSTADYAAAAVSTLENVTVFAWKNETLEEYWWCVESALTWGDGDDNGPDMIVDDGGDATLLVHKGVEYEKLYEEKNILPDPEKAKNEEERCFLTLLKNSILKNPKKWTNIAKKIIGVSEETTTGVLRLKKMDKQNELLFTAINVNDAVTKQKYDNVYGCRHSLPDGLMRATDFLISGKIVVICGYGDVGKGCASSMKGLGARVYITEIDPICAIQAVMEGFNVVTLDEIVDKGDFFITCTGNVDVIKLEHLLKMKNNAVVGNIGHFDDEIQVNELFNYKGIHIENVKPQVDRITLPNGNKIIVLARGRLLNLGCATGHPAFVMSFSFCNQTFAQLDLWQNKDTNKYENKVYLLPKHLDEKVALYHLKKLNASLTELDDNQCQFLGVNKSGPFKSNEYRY", "assay": "Inhibitory activity against Plasmodium falciparum S-adenosyl-L-homocysteine hydrolase"}}, "note": "pEC50, pIC50, pKi: −log10 of the molar value.", "data": [{"smiles": "Nc1nc(F)nc2c1ncn2[C@@H]1C[C@H](O)[C@@H](O)[C@H]1O", "values": [{"measurement": "pEC50", "setting": "FM3A", "result": 5.14}, {"measurement": "pEC50", "setting": "Plasmodium falciparum", "result": 5.13}, {"measurement": "pIC50", "setting": "Adenosylhomocysteinase [1]", "result": 4.20}, {"measurement": "pKi", "setting": "Adenosylhomocysteinase [1]", "result": 5.10}, {"measurement": "pIC50", "setting": "Adenosylhomocysteinase [2]", "result": 4.89}, {"measurement": "pKi", "setting": "Adenosylhomocysteinase [2]", "result": 6.32}]}, {"smiles": "Nc1ncnc2c1ncn2[C@@H]1C[C@H](O)[C@@H](O)[C@H]1O", "note": "[NORARISTEROMYCIN]", "values": [{"measurement": "pEC50", "setting": "FM3A", "result": 7.14}, {"measurement": "pEC50", "setting": "Plasmodium falciparum", "result": 5.13}, {"measurement": "pIC50", "setting": "Adenosylhomocysteinase [1]", "result": 5.96}, {"measurement": "pKi", "setting": "Adenosylhomocysteinase [1]", "result": 6.80}, {"measurement": "pIC50", "setting": "Adenosylhomocysteinase [2]", "result": 5.51}, {"measurement": "pKi", "setting": "Adenosylhomocysteinase [2]", "result": 6.74}]}]}
